# Test results published in article PMC12005229, “Final results from the phase Ia/Ib study of the novel bromodomain and extra-terminal domain inhibitor, BI 894999, in patients with advanced solid tumors or diffuse large B-cell lymphoma” (ESMO Open, 2025).
# Columns and labels:
# patients with DLBCL = assay: phase Ia DLBCL extension: tumor response (RECIL 2017); type: in vivo, human
# Method: (§1) PFS was measured for the period from the start of treatment to the occurrence of progressive disease or death. Tumor response was measured using RECIST 1.1[28] for patients with solid tumors and RECIL 2017[29] for those with DLBCL. OS was assessed in patients with NUT carcinoma; the OS status was to continue until 12 months after the end of the study.
# (§2) Supplementary Table 1. […]
# (§3) • Objective response (OR), defined as complete response (CR) or partial response (PR) with tumor assessment during treatment period for each schedule according to Response Evaluation Criteria in Solid Tumors (RECIST) version 1.1. For DLBCL patients, a minor response according to Response Evaluation Criteria in Lymphoma (RECIL) 2017 was not part of an OR […]
# • Progression-free survival (PFS), defined from date of start of BI 894999 to the date of objective disease progression or death, whichever was earlier, with tumor assessment every 2 cycles (every 6 weeks for Schedule B if no delays or as close as possible to the end of the second of the 2 cycles of treatment if there was a delay) during the treatment period […]
# (§4) AUC0–24, area under the plasma concentration–time curve over the 24-hour dosing interval; AUCτ, ss , area under the plasma concentration–time curve over the dosing interval τ at steady state; AE, adverse event; Cmax, maximal exposure; Cma x , s s , maximal exposure at steady state; DLBCL, diffuse large B- cell lymphoma; DLT, dose-limiting toxicity; mCRPC, metastatic castration-resistant prostate cancer; NUT, nuclear protein in […]
# [1] = test system: nuclear protein in testis (NUT) carcinoma xenograft models; set-up: method as in PMID 35444289; conditions: cited from earlier work
# [2] = test system: patients with advanced solid tumors (SCLC, CRC, mCRPC, NUT carcinoma); assay: phase Ib expansion: tumor response (RECIST 1.1), PFS, OS; type: in vivo, human; conditions: for Best overall response: complete response / Best overall response: not evaluable / Best overall response: partial response / Best overall response: progressive disease / Best overall response: stable disease / Disease control / Median PFS / Objective response / Median OS: phase Ib
# Method: as §1, §2, §3
# • Progression-free survival (PFS), defined from date of start of BI 894999 to the date of objective disease progression or death, whichever was earlier, with tumor assessment every 2 cycles (every 6 weeks for Schedule B if no delays or as close as possible to the end of the second of the 2 cycles of treatment if there was a delay) during the treatment period
# Radiological PFS with tumor assessment by bone scan every 4 cycles for mCRPC patients with non-measurable disease by RECIST 1.1 […]
# • Overall survival in patients with NUT carcinoma. This was for patients in the trial after approval of […]
# The overall survival status was to continue until 12 months after the end of trial […]
# as §4
smiles,measurement,setting,value
CNc1nc(-c2nc3ccc(N4CCN(C)CC4)cc3n2Cc2ccccc2)cn2c(C)nnc12 [BI 894999],patients not assessable,patients with DLBCL; phase Ia DLBCL n = 18,27.8%
same,patients with partial response (BOR),patients with DLBCL; phase Ia DLBCL n = 18,5.6%
same,patients with progressive disease,patients with DLBCL; phase Ia DLBCL n = 18,50.0%
same,patients with stable disease,patients with DLBCL; phase Ia DLBCL n = 18,16.7%
same,duration of response (DOR) of confirmed PR,"patients with DLBCL; phase Ia DLBCL, one patient",49 days
same,Best overall response: complete response,"patients with DLBCL; phase Ia DLBCL, schedule B",0 (0.0) n (%)
same,Best overall response: not evaluable,"patients with DLBCL; phase Ia DLBCL, schedule B",5 (35.7) n (%)
same,Best overall response: partial response,"patients with DLBCL; phase Ia DLBCL, schedule B",1 (7.1) n (%)
same,Best overall response: progressive disease,"patients with DLBCL; phase Ia DLBCL, schedule B",6 (42.9) n (%)
same,Best overall response: stable disease,"patients with DLBCL; phase Ia DLBCL, schedule B",2 (14.3) n (%)
same,Disease control,"patients with DLBCL; phase Ia DLBCL, schedule B",3 (21.4) n (%)
same,Objective response,"patients with DLBCL; phase Ia DLBCL, schedule B",1 (7.1) n (%)
same,Best overall response: complete response,"patients with DLBCL; phase Ia DLBCL, schedule C",0 (0.0) n (%)
same,Best overall response: not evaluable,"patients with DLBCL; phase Ia DLBCL, schedule C",0 (0.0) n (%)
same,Best overall response: partial response,"patients with DLBCL; phase Ia DLBCL, schedule C",0 (0.0) n (%)
same,Best overall response: progressive disease,"patients with DLBCL; phase Ia DLBCL, schedule C",3 (75.0) n (%)
same,Best overall response: stable disease,"patients with DLBCL; phase Ia DLBCL, schedule C",1 (25.0) n (%)
same,Disease control,"patients with DLBCL; phase Ia DLBCL, schedule C",1 (25.0) n (%)
same,Best overall response: complete response,"patients with DLBCL; phase Ia DLBCL, total",0 (0.0) n (%)
same,Best overall response: not evaluable,"patients with DLBCL; phase Ia DLBCL, total",5 (27.8) n (%)
same,Best overall response: partial response,"patients with DLBCL; phase Ia DLBCL, total",1 (5.6) n (%)
same,Best overall response: progressive disease,"patients with DLBCL; phase Ia DLBCL, total",9 (50.0) n (%)
same,Best overall response: stable disease,"patients with DLBCL; phase Ia DLBCL, total",3 (16.7) n (%)
same,Disease control,"patients with DLBCL; phase Ia DLBCL, total",4 (22.2) n (%)
same,Objective response,"patients with DLBCL; phase Ia DLBCL, total",1 (5.6) n (%)
same,effect in NUT carcinoma xenograft models,[1],tumor regressions
same,patients with SD,[2]; CRC,2 n
same,observed objective response rate,[2]; NUT carcinoma,< 10%
same,patients not assessable,"[2]; NUT carcinoma, 42 patients",19.0%
same,patients with SD,"[2]; NUT carcinoma, 42 patients",31.0%
same,patients with complete response,"[2]; NUT carcinoma, 42 patients",1 n
same,patients with confirmed CR,"[2]; NUT carcinoma, 42 patients",2.4%
same,patients with disease control,"[2]; NUT carcinoma, 42 patients",16 patients
same,patients with progressive disease,"[2]; NUT carcinoma, 42 patients",42.9%
same,patients with responses,"[2]; NUT carcinoma, 42 patients",7.1%
same,duration of response (DOR) of confirmed CR,"[2]; NUT carcinoma, one patient",253 days
same,duration of response (DOR) of confirmed PR,"[2]; NUT carcinoma, one patient",588 days
same,patients with SD,[2]; SCLC,1 n
same,patients with SD,[2]; mCRPC,2 n
same,duration of response (DOR) of confirmed PR,"[2]; mCRPC, one patient",46 days
same,patients not assessable,[2]; other solid tumor types n = 37,24.3%
same,patients with SD,[2]; other solid tumor types n = 37,13.5%
same,patients with confirmed PR (mCRPC),[2]; other solid tumor types n = 37,2.7%
same,patients with progressive disease,[2]; other solid tumor types n = 37,59.5%
same,patients with confirmed CR (BOR),[2]; phase Ib n = 79,1.3%
same,Best overall response: complete response,[2]; CRC,0 (0.0) n (%)
same,Best overall response: not evaluable,[2]; CRC,2 (14.3) n (%)
same,Best overall response: partial response,[2]; CRC,0 (0.0) n (%)
same,Best overall response: progressive disease,[2]; CRC,10 (71.4) n (%)
same,Best overall response: stable disease,[2]; CRC,2 (14.3) n (%)
same,Disease control,[2]; CRC,2 (14.3) n (%)
same,Median PFS,[2]; CRC,5.6 weeks
same,Objective response,[2]; CRC,0 (0.0) n (%)
same,Best overall response: complete response,[2]; NUT carcinoma (Schedule B),0 (0.0) n (%)
same,Best overall response: not evaluable,[2]; NUT carcinoma (Schedule B),3 (15.0) n (%)
same,Best overall response: partial response,[2]; NUT carcinoma (Schedule B),1 (5.0) n (%)
same,Best overall response: progressive disease,[2]; NUT carcinoma (Schedule B),9 (45.0) n (%)
same,Best overall response: stable disease,[2]; NUT carcinoma (Schedule B),7 (35.0) n (%)
same,Disease control,[2]; NUT carcinoma (Schedule B),8 (40.0) n (%)
same,Median OS,[2]; NUT carcinoma (Schedule B),6.6 weeks
same,Median PFS,[2]; NUT carcinoma (Schedule B),6.9 weeks
same,Objective response,[2]; NUT carcinoma (Schedule B),1 (5.0) n (%)
same,Best overall response: complete response,[2]; NUT carcinoma (Schedule C),1 (4.5) n (%)
same,Best overall response: not evaluable,[2]; NUT carcinoma (Schedule C),5 (22.7) n (%)
same,Best overall response: partial response,[2]; NUT carcinoma (Schedule C),1 (4.5) n (%)
same,Best overall response: progressive disease,[2]; NUT carcinoma (Schedule C),9 (40.9) n (%)
same,Best overall response: stable disease,[2]; NUT carcinoma (Schedule C),6 (27.3) n (%)
same,Disease control,[2]; NUT carcinoma (Schedule C),8 (36.4) n (%)
same,Median OS,[2]; NUT carcinoma (Schedule C),15.4 weeks
same,Median PFS,[2]; NUT carcinoma (Schedule C),7.8 weeks
same,Objective response,[2]; NUT carcinoma (Schedule C),2 (9.1) n (%)
same,Median OS,[2]; NUT carcinoma total,15.4 weeks
same,Best overall response: complete response,[2]; SCLC,0 (0.0) n (%)
same,Best overall response: not evaluable,[2]; SCLC,3 (25.0) n (%)
same,Best overall response: partial response,[2]; SCLC,0 (0.0) n (%)
same,Best overall response: progressive disease,[2]; SCLC,8 (66.7) n (%)
same,Best overall response: stable disease,[2]; SCLC,1 (8.3) n (%)
same,Disease control,[2]; SCLC,1 (8.3) n (%)
same,Median PFS,[2]; SCLC,5.6 weeks
same,Objective response,[2]; SCLC,0 (0.0) n (%)
same,Best overall response: complete response,[2]; mCRPC,0 (0.0) n (%)
same,Best overall response: not evaluable,[2]; mCRPC,4 (36.4) n (%)
same,Best overall response: partial response,[2]; mCRPC,1 (9.1) n (%)
same,Best overall response: progressive disease,[2]; mCRPC,4 (36.4) n (%)
same,Best overall response: stable disease,[2]; mCRPC,2 (18.2) n (%)
same,Disease control,[2]; mCRPC,3 (27.3) n (%)
same,Median PFS,[2]; mCRPC,11.9 weeks
same,Objective response,[2]; mCRPC,1 (9.1) n (%)
same,Best overall response: complete response,[2]; total,1 (1.3) n (%)
same,Best overall response: not evaluable,[2]; total,17 (21.5) n (%)
same,Best overall response: partial response,[2]; total,3 (3.8) n (%)
same,Best overall response: progressive disease,[2]; total,40 (50.6) n (%)
same,Best overall response: stable disease,[2]; total,18 (22.8) n (%)
same,Disease control,[2]; total,22 (27.8) n (%)
same,Median PFS,[2]; total,6.9 weeks
same,Objective response,[2]; total,4 (5.1) n (%)
